Tests used:
BJ-5ta cells [1] = experiment: Cytoskeletal inhibitor effects on TGT rupture and spreading; type: cell-based, human; conditions: for cell spreading with inhibitor (in words): RGD- and LDVP-TGT; for cell spreading with inhibitor (in words) / TGT rupture with inhibitor (in words), all substrates: 1 h; for TGT rupture with inhibitor (in words), all substrates: inhibitors 5 min preincubation
Excerpt: (21 pictures or pasted objects on this page, not shown here)

BJ-5ta cells [2] = experiment: Percentage of spread cells / cell spreading on TGT surfaces; type: cell-based, human; conditions: for tension threshold for cell spreading: nominal Ttol
Protocol: Glass coverslips were densely PEGylated to minimize non-specific interactions such as the binding of cell-secreted extracellular matrix proteins. Coverslips cleaned by piranha etching solution (a 3:1 mixture of sulfuric acid and hydrogen peroxide) were incubated in silanization solution (UCT, 1760-24-3; 2% aminosilane and 5% acetic acid in methanol) for 30 min and reacted with a mixture of Polyethylene glycol (PEG) with and without biotin (1:19, 150 mg/ml; Laysan Bio, Biotin-PEG-SVA-5000 and MPEG-SVA-5000) for 4 h. Surfaces were washed thoroughly and dried using nitrogen gas after each step. A 3D-printed dish (PLA) or a silicon gasket (Grace Bio Labs, 103280) was attached to the coverslip to form a dish. Neutravidin (Thermo Fisher scientific, 31000; 0.4 mg/ml) was added to the dish for 10 min and washed out thoroughly. The dish was emptied and a droplet (3 µL) of TGT solution (100 nM unless specified otherwise) was placed on the coverslip for 10 min in a humid condition to locally immobilize TGT. For the lateral drift correction for time-resolved TGT rupture analysis, biotin-coated gold nanoparticles (Luna Nanotech, GNP-BIOT-100-2-04; 100 nm) were sparsely immobilized as fiducial markers. For protein ligand coating, protein (50 ug/ml in PBS) was incubated in glass bottomed imaging dishes for 1 h at RT without additional passivation.
The cells were gently harvested by washing in PBS for 1 min, incubating with 0.05% trypsin for 3 min, and then neutralizing with cell culture medium (FBS 10%). The cells were spun down and resuspended with Leibovitz’s L-15 Medium (Gibco, 21083027) supplemented with 2 g/L glucose, then seeded on the TGT surface at an approximate density of 30 cells/mm^2. For integrin inhibition experiments, cells were incubated with Fab for 5 min before seeding. For cell immobilization experiments, cells were incubated with 1 nM Cholesterol-PEG-Biotin (Nanosoft Polymers, 3084-2000) for 5 min, followed by washes by centrifugation to remove biotin in solution before seeding. The imaging area was humidified and the temperature was maintained at 37 °C. A Nikon Eclipse Ti microscope equipped with Xenon arc lamp, Nikon perfect focus system, custom total internal reflection fluorescence microscopy (TIRFM) module, and custom reflection interference contrast microscopy (RICM) module was driven by Elements software. Dark regions in RICM show where cells have closely adhered to the surface (≪300 nm gap). Nikon 10X objective (CFI60 Plan Fluor) and 60X objective (CFI60 Apochromat TIRF) with DIC filter sets were used. […] Images were recorded using an electron-multiplying charge-coupled device (EMCCD; Andor iXon 888).
Single-cell data were obtained from multiple independent sample preparations for each condition as specified. Percentage of spread cells was obtained from three independent experiments. Statistical analyses were performed using MATLAB software. Two-sided (two sample) t-test was used for two group comparisons. Each group was compared with the control group unless specified otherwise. Representative micrographs are selected from at least two independent experiments.

BJ-5ta cells [3] = experiment: Traction force microscopy on ligand-coated polyacrylamide gels; type: cell-based, human
Protocol: Polyacrylamide gels (0.69 and 4.07 kPa shear modulus, 40 μm thickness) were prepared on glass coverslips with embedded 40 nm fluorescent beads (Thermo Scientific, TransFluoSpheres 633/720) and the surfaces were coated with neutravidin as described. […] Cells were seeded on the gels for 1 h. The bead images were taken before and after cell removal with the addition of 0.1% SDS. Bead displacements were determined using particle image velocimetry, and the corresponding contractile energy was estimated with Fourier transform traction cytometry, using ImageJ plugins. The cell area was determined by manually drawing an ROI in the DIC channel. Imaging was performed on Nikon Eclipse Ti2 microscopes equipped with Perfect Focus, CSU-W1 spinning disk, and Hamamatsu Orca-flash 4.0 v3 camera. Illumination was provided by optical fiber (Oz Optics) coupled solid-state lasers: 561 nm (200 mW) for Cy3 and, 655 nm (100 mW) for fluorescent beads from Spectral Applied Research.

integrin α4β1 (EO state) = conditions: extended-open conformation; read-out: affinity for EO state of α4β1; cited from earlier work
integrin αVβ3 = target: T1, integrin αVβ3 (Homo sapiens, UniProt P05106+P06756); experiment: Competition with cRGDfK-TF5WS binding to αVβ3 on K562 transfectants
T1 construct: expressed in transfected cells
Excerpt: (§1) Source data are provided as a Source Data file. […]
(§2) Source data are provided as a Source Data file.
(§3) (1 picture or pasted object on this page, not shown here)

integrin αVβ5 = target: T2, integrin αVβ5 (Homo sapiens, UniProt P06756+P18084); experiment: Competition with cRGDfK-TF5WS binding to αVβ5 on K562 transfectants
T2 construct: expressed in transfected cells
Excerpt: as §1, §2, §3

BJ-5ta cells [4] = experiment: BJ-5ta spreading on ACRGD-TGT with or without integrin blocking Fabs (area, aspect ratio); type: cell-based, human
Protocol: Fig. 9 Integrin α5β1 mediated cell spreading. a Affinity of ACRGD for integrins on intact cells. Titration curves are shown in Supplementary Fig. 13. b–d Behavior of BJ-5ta on ACRGD-54pN (BHQ2-Cy3) surfaces after 1 h in presence of integrin blocking Fabs described in Fig. 6 legend. b Close-contact enclosed area from RICM images (n = 43, 38, 47, 96, 50 cells). c Aspect ratio of contact area (n = 56, 49, 38 cells, >500 μm^2). d Ruptured TGT counts (n = 44, 40, 48, 96 cells). e–g Cell spreading on ACRGD-TGT of different Ttol in presence of integrin blocking Fabs. e Representative images of cells with RICM (top row) and same cells with DIC or Cy3 fluorescence to show TGT rupture (bottom row). Dim RICM rings (~20 μm diameter) with 12, 23 and 33 pN TGT are the shadows of the spherical cell body, not the close contacts. […]
The cells were gently harvested by washing in PBS for 1 min, incubating with 0.05% trypsin for 3 min, and then neutralizing with cell culture medium (FBS 10%). […] A Nikon Eclipse Ti microscope equipped with Xenon arc lamp, Nikon perfect focus system, custom total internal reflection fluorescence microscopy (TIRFM) module, and custom reflection interference contrast microscopy (RICM) module was driven by Elements software. […] Images were recorded using an electron-multiplying charge-coupled device (EMCCD; Andor iXon 888).

BJ-5ta cells [5] = experiment: Actin retrograde flow rate (kymographs, SiR-actin); type: cell-based, human; conditions: 64, 71 loci from 15, 13 cells
Protocol: BJ-5ta cells were seeded on RGD-54pN or LDVP-54pN surfaces for 40 min and 20 nM SiR-actin and 10 µM verapamil (Cytoskeleton, CY-SC001) were added 20 min before imaging. Time-lapse TIRF imaging (640 nm) was done with 2–5 s interval for more than 60 frames. Kymographs were generated with ImageJ and the linear fit analysis was done with MATLAB scripts.

[6] = system: extended-open β1 integrin on BJ-5ta cells; experiment: β1 integrin activation: number and density of bound AF647-12G10 Fab on biotin-PEG-cholesterol immobilized cells; type: cell-based, human

Cc1ccc2c(c1)C(=O)[C@]1(O)CCN(c3ccc(N)cc3)C1=N2 [para-amino-blebbistatin]
rupture of LDVP-12pN with inhibitor (in words) (BJ-5ta cells [1]; LDVP-12pN, 50 uM, listed as para-amino-Blebbistatin): no role
share of rupture requiring myosin II (para-amino-Blebbistatin) (BJ-5ta cells [1]; LDVP-33pN): about one third
rupture of LDVP-33pN with inhibitor (in words) (BJ-5ta cells [1]; LDVP-33pN, 50 uM): significantly reduced rupture events
rupture of RGD-54pN with inhibitor (in words) (BJ-5ta cells [1]; RGD-54pN): significantly suppressed
share of rupture requiring myosin II (para-amino-Blebbistatin) (BJ-5ta cells [1]; RGD-54pN): half
cell spreading with inhibitor (in words) (BJ-5ta cells [1]): did not disrupt cell spreading

Cc1[nH]c2ccccc2c1CCNC(=O)c1ccccc1F [CK666]
TGT rupture with inhibitor (in words), all substrates (BJ-5ta cells [1]): no significant effect

proTGF-β1: physiologic macromolecular ligand with RGD motif
cell morphology (in words) (BJ-5ta cells [2]; 1 h after seeding): elongated with irregular lamellipodia

MUPA-LDVPAAK [α4β1-specific peptidomimetic; 2-methylphenylureaphenylacetyl moiety linked to LDVP motif]
spread cells (fraction), sheet 1c (BJ-5ta cells [2]; TGT 0.01 nM): 0.05399
spread cells (fraction), sheet 1c (BJ-5ta cells [2]; TGT 0.1 nM): 0
spread cells (fraction), sheet 1c (BJ-5ta cells [2]; TGT 0.3 nM): 0.8785
spread cells (fraction), sheet 1c (BJ-5ta cells [2]; TGT 1 nM): 0.9623
spread cells (fraction), sheet 1c (BJ-5ta cells [2]; TGT 10 nM): 0.9712
spread cells (fraction), sheet 1c (BJ-5ta cells [2]; TGT 100 nM): 0.9873
Spread cells on TGT, 12pN (BJ-5ta cells [2]; Ttol 12pN, 1 h, mean, SE in own column, n = 3 independent experiments, given as fraction): 0.9277
Spread cells on TGT, 23pN (BJ-5ta cells [2]; Ttol 23pN, 1 h, mean, n = 3, given as fraction): 0.9461
Spread cells on TGT, 33pN (BJ-5ta cells [2]; Ttol 33pN, 1 h, mean, n = 3, given as fraction): 0.9711
Spread cells on TGT, 43pN (BJ-5ta cells [2]; Ttol 43pN, 1 h, mean, n = 3, given as fraction): 0.9954
Spread cells on TGT, 54pN (BJ-5ta cells [2]; Ttol 54pN, 1 h, mean, n = 3, given as fraction): 0.9781
traction force (in words) (BJ-5ta cells [3]; 4 kPa and 0.7 kPa gels, versus RGD): significantly lower
lower traction force than on RGD (BJ-5ta cells [3]; soft gel (0.7 kPa)): ~ 10 fold
Kd (integrin α4β1 (EO state)): 0.15 nM

C[C@H](N)C(=O)N[C@H]1CSSC[C@@H](C(=O)NCC(=O)O)NC(=O)[C@H](Cc2c[nH]c3ccccc23)NC(=O)CNC(=O)[C@H](CC(=O)O)NC(=O)CNC(=O)[C@H](CCCNC(=N)N)NC1=O
IC50 (integrin αVβ3): 765 ± 84 nM
Kd (integrin αVβ3; Kd αVβ3, L15 + 1 mM Mn2+, 1% BSA, competition with 25 nM cRGDfK-TF5WS): 170 ± 20 nM
Kd (integrin αVβ3; Kd αVβ3, L15, 1% BSA, no Mn2+, competition with cRGDfK-TF5WS (25 nM for Fabs, 50 nM for ACRGDGWCG), Kd = EC50/(1+CL/Kd,L)): 530 ± 60 nM
EC50 (integrin αVβ5; EC50 αVβ5, L15 + 1 mM Mn2+, competition with 25 nM cRGDfK-TF5WS): 102 ± 7 nM
EC50 (integrin αVβ5; EC50 αVβ5, L15, no Mn2+, competition with 50 nM cRGDfK-TF5WS): 367 ± 29 nM
Kd (integrin αVβ5; Kd αVβ5, L15 + 1 mM Mn2+, 1% BSA, competition with 25 nM cRGDfK-TF5WS): 50 ± 4 nM

C=C1[C@@H](C)[C@H]2[C@H](Cc3ccccc3)NC(=O)[C@]23[C@H](OC(C)=O)/C=C/[C@@](C)(O)C(=O)[C@@H](C)C/C=C/[C@H]3[C@@H]1O [Cytochalasin D]
TGT rupture with inhibitor (in words), all substrates (BJ-5ta cells [1]): eliminated TGT rupture on all substrates
cell spreading with inhibitor (in words) (BJ-5ta cells [1]): inhibited cell spreading

O=C1NC(=S)N(c2cccc(Br)c2)C(=O)/C1=C/c1ccco1 [SMIFH2]
TGT rupture with inhibitor (in words), all substrates (BJ-5ta cells [1]): greatly diminished TGT rupture
cell spreading with inhibitor (in words) (BJ-5ta cells [1]): greatly decreased spreading

C[C@@H](N)[C@H]1CC[C@H](C(=O)Nc2ccncc2)CC1 [Y-27632]
rupture of RGD-54pN with inhibitor (in words) (BJ-5ta cells [1]; RGD-54pN): significantly suppressed
cell spreading with inhibitor (in words) (BJ-5ta cells [1]): did not disrupt cell spreading

cyclic-ACRGDGWCGK (disulfide) [ACRGD-TGT]
spreading on ACRGD-54pN with blocking Fabs (in words) (BJ-5ta cells [4]; ACRGD-54pN (BHQ2-Cy3), 1 h): spread efficiently and developed elongated, irregular shapes
force level required for spreading through α5β1 (BJ-5ta cells [4]; blocking Fabs to αVβ1, αVβ3 and αVβ5 present): > 33 pN

MUPA-LDVPAAK [LDVP-TGT, tension gauge tether conjugated with MUPA-LDVPAAK]
tension threshold for cell spreading (BJ-5ta cells [2]; 1 h): < 12 pN
cell spreading (in words) (BJ-5ta cells [2]; 1 h after seeding): adhered and spread well
retrograde actin flow (BJ-5ta cells [5]): 24.8 nm/s
force needed for activation of β1 integrin to high affinity state [6]: less than 12 pN
12G10 Fab density / activated β1 density (in words) ([6]; versus control, 30 min): significantly above the control and similar at all Ttol

cyclo [Arg-Gly-Asp-D-Phe-Lys(8-amino-3,6-dioxaoctanoic acid dimer)] (head to tail) [RGD-TGT]
tension threshold for cell spreading (BJ-5ta cells [2]; 1 h): 33–43 pN
retrograde actin flow (BJ-5ta cells [5]): 10.1 nm/s

O=S(=O)(c1cccc2c(I)cccc12)N1CCCNCC1 [ML-7]
rupture of RGD-54pN with inhibitor (in words) (BJ-5ta cells [1]; RGD-54pN): significantly suppressed
cell spreading with inhibitor (in words) (BJ-5ta cells [1]): did not disrupt cell spreading
